Measurements taken from patent US20110144188A1, “SALTS OF T[…] N-[…] TRIMEBUTINE” (Antibe Therapeutics Inc., priority 2006, published 2011).

Experiments:
[1] = tested on: abdominal pain in patients with functional bowel disorders; details: especially IBS, 300 to 600 mg/day; cited from earlier work
[2] = tested on: rat model of visceral pain perception; assay: Rat model of visceral pain perception (colorectal distension, AWR score and colorectal pressure); type: in vivo
Protocol: A rat model of visceral pain perception, a pre-clinical model of irritable bowel syndrome, was used in the following example. Rats (male, Wistar, 200-250 g, obtained from Charles River, Monza, Italy), were housed in plastic cages and maintained under controlled conditions with 12-hours light/dark cycle with lights on at 7.00 AM. Tap water and standard laboratory chow were freely available. Before experiments, rats were individually trained by spending 2-3 hours per day in a plexiglass cage for 2-3 days. It allowed them to adjust to a movement-restriction environment. Food was withheld for 12 hours before colorectal distension (CRD) recording were performed. Experiments were performed in awake rats and were conducted in a blind manner in that the observer was not aware of the identity of drug administered to each animal.
On the testing day, rats were sedated with ether inhalation and a 2 cm long latex balloon was inserted intrarectally 2 cm from the anal verge and fixed at the base of the tail. The balloon was connected via a double-barreled cannula to a pressure transducer to continuously monitoring the rectal pressure by a computer (PowerLab PC, A.D. Instruments, Milford, Mass., USA) and to a syringe for inflation/deflation of the balloon. The rats were then housed in a small cage (20×8×8 cm) on an elevated Plexiglas™ platform and allowed to wake up and adapt for 1 hour. After recovery from sedation, animals underwent the CRD procedure and behavioral responses were tested. The night before the experiments, the balloons were inflated and left overnight so the latex stretched and the balloons became compliant.
CRD of 20 seconds, performed every 5 minutes, was applied in increment of 0.4 ml starting from 0.4 ml up to 1.6 ml water. To achieve an accurate measurement of the colonic parameters and perception, the distensions were repeated twice for each intensity and data for each animal were averaged for analysis. Each animal underwent a double set of CRD. Twenty minutes after the first sequence of CRD (0.4 mL-1.6 ml water), drugs were administered intraperitoneally (i.p.) and a second set of CRD was performed. Behavioral responses during the first and the second set of CRD were assessed and compared.
Behavioral response to CRD was assessed by measuring the abdominal withdrawal reflex (AWR) using a semi-quantitative score (1).
The effects of trimebutine maleate, nitroarginine and trimebutine nitroargininate on colonic compliance and sensitivity were determined using a total of 15 fasting rats. […]
To determine the effect of trimebutine maleate, nitroarginine and trimebutine nitroargininate on colonic smooth muscle, the compliance of the colo-rectum during CRD was obtained from intracolo-rectal volume and pressure and expressed as mL/mmHg. […]

NC(=S)c1ccc(C(=O)O)cc1
melting point: 296 to 298 °C (dec.)

CCC(COC(=O)c1cc(OC)c(OC)c(OC)c1)(c1ccccc1)N(C)C (stereo not drawn) [Trimebutine, 3,4,5-trimethoxybenzoic acid 2-(dimethylamino)-2-phenylbutylester]
treatment of abdominal pain in patients [1]: effective in the treatment of both acute and chronic abdominal pain

CCC(COC(=O)c1cc(OC)c(OC)c(OC)c1)(c1ccccc1)N(C)C.N=C(NCCC[C@H](N)C(=O)O)N[N+](=O)[O-] (stereo not drawn) [trimebutine nitroargininate]
reducing visceral pain in response to colorectal distension (AWR score) ([2]; Wistar rats, 16 mg/kg i.p., vs trimebutine maleate 10 mg/kg i.p. and nitroarginine 6 mg/kg, FIGS. 1(a), 2(a), 3(a)): more effective than either trimebutine maleate or nitroarginine | visceral analgesic effects (AWR score) after pretreatment with L-NAME ([2]; rats, 16 mg/kg i.p., L-NAME 25 mg/kg i.v. 10 min before, FIG. 4(a)): largely abolished | visceral analgesic effects (AWR score) after pretreatment with methylene blue ([2]; rats, 16 mg/kg i.p., methylene blue 1 mg/kg i.p. 10 min before, FIG. 4(b)): largely abolished

CCC(COC(=O)c1cc(OC)c(OC)c(OC)c1)(c1ccccc1)N(C)C.NC(=S)c1ccc(C(=O)O)cc1 (stereo not drawn) [trimebutine thiocarbamoylbenzoate, 3,4,5-trimethoxybenzoic acid 2-(dimethylamino)-2-phenylbutyl ester 4-thiocarbamoyl benzoate]
reducing visceral pain in response to colorectal distension (AWR score) ([2]; rats, dose equimolar to trimebutine maleate 10 mg/kg, vs trimebutine maleate and thiocarbamoylbenzoate alone, FIGS. 5(a), 5(b)): more effective than either trimebutine maleate or thiocarbamoylbenzoate
